Laboratory results taken from patent publication US20090197914A1, “Piperidine Derivatives, Their Process for Preparation, Their Use as Therapeutic Agents and Pharmaceutical Compositions Containing Them” (priority 2006, published 2009).

How the values were obtained:
[1] = Intrinsic clearance with human liver microsomes; format: in vitro ADME; conditions: human liver microsomes 1 mg protein/ml, NADPH, pH 7.4
Experimental: Determination of Intrinsic Clearance with Human Liver Microsomes
Frozen human liver microsomes (BD Gentest, Oxford) were defrosted and were then diluted with 0.1 M pH 7.4 phosphate buffer at 4° C. to 1 mg protein/ml. 0.45 mL aliquots of the microsome suspension were dispensed into flat-bottomed vials (1 per compound) and were allowed to come to room temperature (5 min). During the warming time, 5 μL of solution of each test compound (typically 100 μM in DMSO) was dispensed into separate vials resulting in a final DMSO concentration of 1%. 50 μL of a 10 mM solution of NADPH in phosphate buffer (0.1 M pH 7.4, 37° C.) was added to each vial to initiate metabolism.
50 μL Aliquots of the mixtures were removed at measured intervals and were immediately quenched by addition to 100 μL of methanol cooled in ice. The quenched samples were kept cold (at −20° C. or less) for at least 1 h and were then centrifuged to remove protein.
The supernatant solution was analysed using quantitative LCMS for the presence of test compound. From the concentrations of test compound at different time points a T1/2 may be calculated which may be converted to an intrinsic clearance using the equation: CLint=ln 2/T1/2.

[2] = molecular target: T1, human recombinant CCR3 receptors (Homo sapiens, UniProt P51677); experiment: Compound affinity at human recombinant CCR3 receptors by radioligand competition, CHO-K1 cell membranes; format: binding; conditions: mean pKi by Cheng-Prussof correction of pIC50, minimum of 2 separate experiments, 2 nM [3H] ligand, 2 h at 37° C.
T1 construct: expressed in transfected cells; membranes
T1 sequence (P51677 1-355): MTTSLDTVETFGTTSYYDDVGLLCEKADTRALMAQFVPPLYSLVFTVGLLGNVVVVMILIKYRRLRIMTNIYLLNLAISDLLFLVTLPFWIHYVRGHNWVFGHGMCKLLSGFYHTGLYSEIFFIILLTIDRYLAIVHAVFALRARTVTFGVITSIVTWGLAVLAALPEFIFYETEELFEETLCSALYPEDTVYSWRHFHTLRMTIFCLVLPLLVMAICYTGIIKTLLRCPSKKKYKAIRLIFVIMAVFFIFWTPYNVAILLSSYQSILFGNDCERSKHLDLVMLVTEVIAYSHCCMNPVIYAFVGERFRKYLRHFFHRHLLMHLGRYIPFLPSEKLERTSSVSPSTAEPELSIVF
Experimental: Determination of Compound Affinity at Human Recombinant CCR3 Receptors Assessed By Competition of [^3H]-4-(2,4-dichloro-3-methylphenoxy)-1′-[4-(methylsulfonyl)benzoyl]-1,4′-bipiperidine for CHO-K1 Cell Membranes In Vitro
Membranes, prepared from CHO-K1 cells stably expressing recombinant human CCR3, suspended in assay buffer (50 mM Tris-Base, pH 7.4; containing sodium chloride (100 mM) and magnesium chloride (2 mM)) were incubated in the presence of 2 nM [^3H]-4-(2,4-dichloro-3-methylphenoxy)-1′-[4-(methylsulfonyl)benzoyl]-1,4′-bipiperidine, along with vehicle (1% (v/v) DMSO), 4-(4-chloro-3-methylphenoxy)-1′-[2-(methylsulfonyl)benzoyl]-1,4′-bipiperidine (to define non-specific binding) or test compound for 2 h at 37° C. in round bottomed 96-well plates. […] Four washes (250 μL) with wash buffer (50 mM Tris-Base, pH 7.4 containing sodium chloride (500 mM) and magnesium chloride (2 mM)) were performed at 4° C. to remove unbound radioactivity. […] The plates were sealed (TopSeal A) and filter-bound radioactivity was measured with a scintillation counter (TopCount, Packard BioScience) using a 1 minute counting protocol.
Specific binding was determined from values of the control wells minus the values for the NSB wells for each assay plate. […] Data were presented as mean pKi values (calculated by applying a Cheng-Prussof correction to pIC50 values) from a minimum of 2 separate experiments.

CLint scaled at 1 µM [1]: < 3 mL/min/kg
Ki [2]: 3.16 nM
Compound: Cc1c(CN2CCC(NC(=O)COc3nc(N)c(C(=O)O)cc3F)CC2)ccc(Cl)c1Cl [Example 4, 2-Amino-6-{[1-(3,4-dichloro-2-methyl-benzyl)-piperidin-4-ylcarbamoyl]-methoxy}-5-fluoro-nicotinic acid]
